Data taken from US11021445B2, “Carboxylic acid derivative as AT2R receptor antagonist” (SHANDONG DANHONG PHARMACEUTICAL CO., LTD., priority 2017, dated 2021).

biological target: T1, hAT2 (Homo sapiens, UniProt P50052); assay: hAT2 receptor binding assay (SPA, [125I]-Sar1-Ile8-Angiotensin II); conditions: membrane of HEK-293 cells overexpressing hAT2; 0.1 nM 125I ligand
T1 construct: expressed in transfected cells; host or cells: HEK-293
T1 sequence (P50052 1-363): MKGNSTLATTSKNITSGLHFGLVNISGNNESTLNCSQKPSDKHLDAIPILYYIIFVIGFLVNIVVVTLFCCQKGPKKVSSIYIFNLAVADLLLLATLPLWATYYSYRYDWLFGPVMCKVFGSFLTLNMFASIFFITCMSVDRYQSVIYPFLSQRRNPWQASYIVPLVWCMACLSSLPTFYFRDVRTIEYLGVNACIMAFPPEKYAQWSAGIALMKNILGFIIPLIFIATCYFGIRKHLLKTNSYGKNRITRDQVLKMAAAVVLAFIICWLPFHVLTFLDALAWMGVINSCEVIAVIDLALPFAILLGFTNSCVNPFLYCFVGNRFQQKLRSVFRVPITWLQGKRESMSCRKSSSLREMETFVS
Procedure: hAT2 Receptor Binding Assay
Protease inhibitor mixture, free of ethylenediaminetetraacetic acid-1 tablets (Roche #11873580001) (50 mL plus one piece)
Experimental Methods and Steps
The reference ligand PD123319 and the test compound were prepared into a 750 μM mother liquor by DMSO; each compound was prepared into a solution of 8 concentration gradients (up to a concentration of 750 μM, 3-fold dilution) and 10 μl of the solution was added to a master of a 384-well plate per well.
The SPA beads were prepared to a mother liquor of 25 mg/ml by the buffer;
The isotope [^125I]-Sar1-Ile8-Angiotensin II was prepared into a mother liquor of 50 μCi/ml by adding pure water.
The cell membrane overexpressing hAT2 in HEK-293 cells was prepared to 2.5 mg/ml by the buffer.
200 nl of compound was aspirated from the mother plate with ECHO to each well of the 384-well test plate. ZPE was added to an equal volume of DMSO. (The concentration of the test compound in the reaction was diluted by 250 times).
A 50 ml membrane solution containing 10 μg/μl of magnetic beads and 0.05 μg/μl of AT2 was prepared, placed on a shaker and uniformly mixed. (100 rpm, 30 min). The test plate finally contained an hAT2 membrane with 1.25 μg/well and magnetic beads with 250 μg/well.
A 3.2 ml membrane liquid mixture was added to the compound test plate by using a Multidrop Combi pipette, and 25 μl was added to each well.
A 0.2 nM solution was prepared with 50 μCi/ml of isotope [^125I]-Sar1-Ile8-Angiotensin II mother liquor by the buffer, and 0.2 nM of ^125I was added to the compound test plate with a Multidrop Combi pipette. A volume of 25 μl was added to each well. The final concentration of ^125I isotope is 0.1 nM.
The prepared test plate was placed on a shaker overnight at room temperature at 200 rpm.
The test plate was centrifuged with a centrifuge at 1200 rpm for 1 min.
The centrifuged test plate was read with Microbeta.

| IC50 [nM] | SMILES |
| --- | --- |
| 126 | COc1ccc2c(c1OCc1ccccc1)C[C@@H](C(=O)O)N(C(=O)[C@H](OC1CC(F)(F)C1)c1ccccc1)C2 [Compound 52] |
| 84.1 | COc1ccc2c(c1OCc1ccccc1)C[C@@H](C(=O)O)N(C(=O)[C@@H](OC1CCCC1)c1ccc(F)cc1)C2 [Compound 53] |
| > 3000 | COc1ccc2c(c1OCc1ccccc1)C[C@@H](C(=O)O)N(C(=O)[C@H](OC1CCCC1)c1ccc(F)cc1)C2 [Compound 54] |
| 4.4 | COc1ccc2c(c1OCc1ccccc1)C[C@@H](C(=O)O)N(C(=O)[C@@H](OC1CC3CC3C1)c1ccccc1)C2 (stereo partly shown) [Compound 55] |
| 224 | COc1ccc2c(c1OCc1ccccc1)C[C@@H](C(=O)O)N(C(=O)[C@H](OC1CC3CC3C1)c1ccccc1)C2 (stereo partly shown) [Compound 56] |
| 155 | COc1ccc2c(c1OCc1ccccc1)C[C@@H](C(=O)O)N(C(=O)[C@H](OC1(C)CCCC1)c1ccccc1)C2 [Compound 58] |
| 375 | COc1ccc2c(c1OCc1ccccc1)C[C@@H](C(=O)O)N(C(=O)[C@H](O[C@H]1CC[C@@H](O)CC1)c1ccccc1)C2 [Compound 64] |
| 157 | COc1ccc2c(c1OCc1ccccc1)C[C@@H](C(=O)O)N(C(=O)[C@@H](O[C@H]1CC[C@H](O)CC1)c1ccccc1)C2 [Compound 65] |
| > 3000 | COc1ccc2c(c1OCc1ccccc1)C[C@@H](C(=O)O)N(C(=O)[C@H](O[C@H]1CC[C@H](O)CC1)c1ccccc1)C2 [Compound 66] |
| 1.6 | Cc1ccc2c(c1OCc1ccccc1)C[C@@H](C(=O)O)N(C(=O)[C@@H](OC1CC(F)(F)C1)c1ccccc1)C2 [Compound 67] |
| 67 | Cc1ccc2c(c1OCc1ccccc1)C[C@@H](C(=O)O)N(C(=O)[C@H](OC1CC(F)(F)C1)c1ccccc1)C2 [Compound 68] |
| 1.7 | Cc1ccc2c(c1OCc1ccccc1)C[C@@H](C(=O)O)N(C(=O)[C@@H](OC1(C)CCCC1)c1ccccc1)C2 [Compound 69] |
| 65.6 | Cc1ccc2c(c1OCc1ccccc1)C[C@@H](C(=O)O)N(C(=O)[C@H](OC1(C)CCCC1)c1ccccc1)C2 [Compound 70] |
| 1090 | Cc1ccc2c(c1OCc1ccccc1)C[C@@H](C(=O)O)N(C(=O)[C@@H](O[C@H]1CC[C@@H](O)CC1)c1ccccc1)C2 [Compound 71] |
| 5.3 | Cc1ccc2c(c1OCc1ccccc1)C[C@@H](C(=O)O)N(C(=O)[C@H](O[C@H]1CC[C@@H](O)CC1)c1ccccc1)C2 [Compound 72] |
| 3.7 | O=C(O)[C@@H]1Cc2c(ccc(Cl)c2OCc2ccccc2)CN1C(=O)[C@@H](OC1CC(F)(F)C1)c1ccccc1 [Compound 73] |
| 129 | O=C(O)[C@@H]1Cc2c(ccc(Cl)c2OCc2ccccc2)CN1C(=O)[C@H](OC1CC(F)(F)C1)c1ccccc1 [Compound 74] |
| 3.9 | CC1(O[C@H](C(=O)N2Cc3ccc(Cl)c(OCc4ccccc4)c3C[C@H]2C(=O)O)c2ccccc2)CCCC1 [Compound 75] |
| 72.7 | CC1(O[C@@H](C(=O)N2Cc3ccc(Cl)c(OCc4ccccc4)c3C[C@H]2C(=O)O)c2ccccc2)CCCC1 [Compound 76] |

| IC50 [nM] | SMILES |
| --- | --- |
| 881 | O=C(O)[C@@H]1Cc2c(ccc(Cl)c2OCc2ccccc2)CN1C(=O)[C@@H](O[C@H]1CC[C@@H](O)CC1)c1ccccc1 [Compound 77] |
| 7.4 | O=C(O)[C@@H]1Cc2c(ccc(Cl)c2OCc2ccccc2)CN1C(=O)[C@H](O[C@H]1CC[C@@H](O)CC1)c1ccccc1 [Compound 78] |
| 5.8 | CC1(O[C@H](C(=O)N2Cc3cccc(OCc4ccccc4)c3C[C@H]2C(=O)O)c2ccccc2)CCCC1 [Compound 79] |
| 323 | CC1(O[C@@H](C(=O)N2Cc3cccc(OCc4ccccc4)c3C[C@H]2C(=O)O)c2ccccc2)CCCC1 [Compound 80] |
| 20.8 | O=C(O)[C@@H]1Cc2c(cccc2OCc2ccccc2)CN1C(=O)[C@H](O[C@H]1CC[C@@H](O)CC1)c1ccccc1 [Compound 82] |
| 3.2 | O=C(O)[C@@H]1Cc2c(cccc2OCc2ccccc2)CN1C(=O)[C@@H](OC1CC(F)(F)C1)c1ccccc1 [Compound 83] |
| 481 | O=C(O)[C@@H]1Cc2c(cccc2OCc2ccccc2)CN1C(=O)[C@H](OC1CC(F)(F)C1)c1ccccc1 [Compound 84] |
| 83.5 | O=C(O)[C@@H]1Cc2c(cccc2OCc2ccccc2)CN1C(=O)[C@@H](O[C@H]1C[C@@H](O)C1)c1ccccc1 [Compound 85] |
| 879 | O=C(O)[C@@H]1Cc2c(cccc2OCc2ccccc2)CN1C(=O)[C@H](O[C@H]1C[C@@H](O)C1)c1ccccc1 [Compound 86] |
| 234 | O=C(O)[C@H]1Cc2c(ccc(Cl)c2OCc2ccccc2)CN1C(=O)[C@@H](OC1CCCC1)c1ccccc1 [Compound 108] |
| 1050 | N#Cc1ccc2c(c1OCc1ccccc1)C[C@@H](C(=O)O)N(C(=O)[C@@H](OC1CCCC1)c1ccccc1)C2 [Compound 109] |
| 552 | N#Cc1ccc2c(c1OCc1ccccc1)C[C@H](C(=O)O)N(C(=O)[C@@H](OC1CCCC1)c1ccccc1)C2 [Compound 110] |
| 116 | N#Cc1ccc2c(c1OCc1ccccc1)C[C@H](C(=O)O)N(C(=O)[C@H](OC1CCCC1)c1ccccc1)C2 [Compound 112] |
| > 3000 | COc1ccc2c(c1OCc1ccccc1)C[C@@](C)(C(=O)O)N(C(=O)[C@@H](OC1CCCC1)c1ccccc1)C2 [Compound 113] |
| 412 | COc1ccc2c(c1OCc1ccccc1)C[C@](C)(C(=O)O)N(C(=O)[C@H](OC1CCCC1)c1ccccc1)C2 [Compound 114] |
| 115 | COc1ccc2c(c1OCc1ccccc1)C[C@@](C)(C(=O)O)N(C(=O)[C@H](OC1CCCC1)c1ccccc1)C2 [Compound 115] |
| 9.1 | COc1ccc2c(c1OCc1cccs1)C[C@@H](C(=O)O)N(C(=O)[C@@H](OC1CCCC1)c1ccccc1)C2 [Compound 117] |
| 30.4 | O=C(O)[C@@H]1Cc2c(ccc(O)c2OCc2ccccc2)CN1C(=O)[C@@H](OC1CCCC1)c1ccccc1 [Compound 118] |
